The values below come from patent US20250263424A1, “KRAS INHIBITORS” (Bristol-Myers Squibb Company, priority 2022, published 2025).

This experiment addresses Recombinant GMPPNP-loaded KRAS G12C (KRAS-G12C(ON), active form) (Homo sapiens, UniProt P01116, G12C). The experiment is described as follows: KRAS G12C RAF Disruption Assay (HTRF). It counts as biochemical. The following applies: GMPPNP-loaded KRAS G12C 5 nM, GST-RAF1 RBD 9 nM, read-out: KRASG12C RAF Disruption Assay (IC50). In short, it runs like this:
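GMPPNP-loaded KRAS G12C (5 nM) preincubated with compound 20 min at room temperature in Tris pH 7.5 buffer with MgCl2, DTT and BSA. GST-RAF1 RBD (9 nM) then added for 20 min, and SA-Tb (0.25 nM) for 3 h. HTRF 520/495 ratio read; IC50 taken from the dose-response curve.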

Where two headings read alike, the source gives them in different places.

Consider `N#CC[C@H]1CN(c2nc(OC[C@@]34CCCN3C[C@H](F)C4)nc3c(F)c(-c4cccc5cccc(Cl)c45)ccc23)CCN1C(=O)/C(F)=C/c1ncccn1` [Example 42, 2-((S)-4-(7-(8-chloronaphthalen-1-yl)-8-fluoro-2-(((2R,7aS)-2-fluorotetrahydro-1H-pyrrolizin-7a(5H)-yl)methoxy)quinazolin-4-yl)-1-((Z)-2-fluoro-3-(pyrimidin-2-yl)acryloyl)piperazin-2-yl)acetonitrile], for which, for the setting “values in nM”, the IC50 was determined as 88 nM.

As to `CN1CCC[C@H]1COc1nc(N2CCN(C(=O)/C(F)=C/c3ccccn3)[C@@H](CC#N)C2)c2ccc(-c3cc(O)cc4ccccc34)c(F)c2n1` [Example 24, 2-((S)-1-((Z)-2-fluoro-3-(pyridin-2-yl)acryloyl)-4-(8-fluoro-7-(3-hydroxynaphthalen-1-yl)-2-(((S)-1-methylpyrrolidin-2-yl)methoxy)quinazolin-4-yl)piperazin-2-yl)acetonitrile], the IC50 (values in nM) amounted to 22 nM. As for `CCc1cccc2cccc(-c3ccc4c(N5CCN(C(=O)/C(F)=C/c6cnccn6)[C@@H](CC#N)C5)nc(OC[C@@H]5CCCN5C)nc4c3F)c12` [Example 58, 2-((S)-4-(7-(8-ethylnaphthalen-1-yl)-8-fluoro-2-(((S)-1-methylpyrrolidin-2-yl)methoxy)quinazolin-4-yl)-1-((Z)-2-fluoro-3-(pyrazin-2-yl)acryloyl)piperazin-2-yl)acetonitrile], under “values in nM”, the IC50 turned out to be 2400 nM. Consider “(Z)-1-(3-((7M)-7-(6-amino-4-methyl-3-(trifluoromethyl)pyridin-2-yl)-6-chloro-8-fluoro-2-(((2R,7aR)-2-fluorotetrahydro-1H-pyrrolizin-7a(5H)-yl)methoxy)quinazolin-4-yl)-3,9-diazabicyclo[3.3.1]nonan-9-yl)-2-fluoro-3-(thiazol-2-yl)prop-2-en-1-one [Example 14]”, for which the IC50 (values given in μM) is 2100 nM. `C#Cc1cccc2cccc(-c3ccc4c(N(C)[C@@H]5CCN(C(=O)/C(F)=C/c6ccccn6)C5)nc(OC[C@@]56CCCN5C[C@H](F)C6)nc4c3F)c12` [Example 81, (Z)-1-((R)-3-((7-(8-ethynylnaphthalen-1-yl)-8-fluoro-2-(((2R,7aS)-2-fluorotetrahydro-1H-pyrrolizin-7a(5H)-yl)methoxy)quinazolin-4-yl)(methyl)amino)pyrrolidin-1-yl)-2-fluoro-3-(pyridin-2-yl)prop-2-en-1-one]: for the setting “values in nM”, the IC50 is 20 nM. As to `CN1CCC[C@H]1COc1nc(N2CCN(C(=O)/C(F)=C/c3nccs3)[C@@H](CC#N)C2)c2ccc(-c3cccc4cccc(Cl)c34)c(F)c2n1` [Example 33, 2-((S)-1-((Z)-2-fluoro-3-(thiazol-2-yl)acryloyl)-4-(8-fluoro-7-(8-chloronaphthalen-1-yl)-2-(((S)-1-methylpyrrolidin-2-yl)methoxy)quinazolin-4-yl)piperazin-2-yl)acetonitrile], the IC50 (values in nM) turned out to be 76 nM. Consider `N#CC[C@H]1CN(c2nc(OC[C@@]34CCCN3C[C@H](F)C4)nc3c(F)c(-c4cc(O)cc5ccccc45)ccc23)CCN1C(=O)/C(F)=C/c1ncccn1` [Example 40, 2-((S)-4-(8-fluoro-2-(((2R,7aS)-2-fluorotetrahydro-1H-pyrrolizin-7a(5H)-yl)methoxy)-7-(3-hydroxynaphthalen-1-yl)quinazolin-4-yl)-1-((Z)-2-fluoro-3-(pyrimidin-2-yl)acryloyl)piperazin-2-yl)acetonitrile], for which the IC50 (values in nM) came to 11 nM. Consider `C[C@H]1CN(C(=O)/C(F)=C/c2ncccn2)CCN1c1nc(OC[C@@H]2CCCN2C)nc2c(F)c(-c3cccc4cccc(Cl)c34)c(Cl)cc12` [Example 2, (Z)-1-((3S)-4-(6-chloro-7-(8-chloronaphthalen-1-yl)-8-fluoro-2-(((S)-1-methylpyrrolidin-2-yl)methoxy)quinazolin-4-yl)-3-methylpiperazin-1-yl)-2-fluoro-3-(pyrimidin-2-yl)prop-2-en-1-one], for which, for the setting “values given in μM”, the IC50 came out at 61300 nM. `CN1CCC[C@H]1COc1nc(N2CCN(C(=O)/C(F)=C/c3ccccn3)CC2)c2ccc(-c3cc(O)cc4ccccc34)c(F)c2n1` [Example 28, (S,Z)-2-fluoro-1-(4-(8-fluoro-7-(3-hydroxynaphthalen-1-yl)-2-((1-methylpyrrolidin-2-yl)methoxy)quinazolin-4-yl)piperazin-1-yl)-3-(pyridin-2-yl)prop-2-en-1-one]: the IC50 (values in nM) came out at 350 nM. As to `Cc1cc(N)nc(-c2c(Cl)cc3c(N[C@H]4C[C@@H](NC(=O)/C(F)=C/c5nccs5)C4)nc(OC[C@]45CCCN4C[C@H](F)C5)nc3c2F)c1C(F)(F)F` (atropisomer, axis not shown; (M)) [Example 13, (Z)-N-((1S,3s)-3-(((7M)-7-(6-amino-4-methyl-3-(trifluoromethyl)pyridin-2-yl)-6-chloro-8-fluoro-2-(((2R,7aR)-2-fluorotetrahydro-1H-pyrrolizin-7a(5H)-yl)methoxy)quinazolin-4-yl)amino)cyclobutyl)-2-fluoro-3-(thiazol-2-yl)acrylamide], the IC50 (values given in μM) amounted to 1100 nM. Consider `COCCCN1CCC(Oc2nc(N3CCN(C(=O)/C(F)=C/c4nccs4)[C@@H](CC#N)C3)c3ccc(-c4cccc5cccc(Cl)c45)c(F)c3n2)CC1` [Example 74, (S,Z)-2-(4-(7-(8-chloronaphthalen-1-yl)-8-fluoro-2-((1-(3-methoxypropyl)piperidin-4-yl)oxy)quinazolin-4-yl)-1-(2-fluoro-3-(thiazol-2-yl)acryloyl)piperazin-2-yl)acetonitrile], for which the IC50 (values in nM) came out at 1500 nM. On to `CN1CCC[C@H]1COc1nc(N2C[C@H]3CC[C@@H](C2)N3C(=O)/C(F)=C/c2ccccn2)c2cc(Cl)c(-c3cc(O)cc4ccccc34)c(F)c2n1` [Example 8, (Z)-1-((1R,5S)-3-(6-chloro-8-fluoro-7-(3-hydroxynaphthalen-1-yl)-2-(((S)-1-methylpyrrolidin-2-yl)methoxy)quinazolin-4-yl)-3,8-diazabicyclo[3.2.1]octan-8-yl)-2-fluoro-3-(pyridin-2-yl)prop-2-en-1-one], for which, for the setting “values given in μM”, the IC50 amounted to 9600 nM.

Turning to `C#Cc1c(F)ccc2cc(O)cc(-c3ccc4c(N5CCN(C(=O)/C(F)=C/c6nccs6)CC5)nc(OC[C@@]56CCCN5C[C@H](F)C6)nc4c3F)c12` [Example 72, (Z)-1-(4-(7-(8-ethynyl-7-fluoro-3-hydroxynaphthalen-1-yl)-8-fluoro-2-(((2R,7aS)-2-fluorotetrahydro-1H-pyrrolizin-7a(5H)-yl)methoxy)quinazolin-4-yl)piperazin-1-yl)-2-fluoro-3-(thiazol-2-yl)prop-2-en-1-one], the IC50 (values in nM) turned out to be 2 nM. Turning to `CCc1cccc2cccc(-c3ccc4c(N5CCN(C(=O)/C(F)=C/c6ccccn6)[C@@H](CC#N)C5)nc(OC[C@@H]5CCCN5C)nc4c3F)c12` [Example 59, 2-((S)-4-(7-(8-ethylnaphthalen-1-yl)-8-fluoro-2-(((S)-1-methylpyrrolidin-2-yl)methoxy)quinazolin-4-yl)-1-((Z)-2-fluoro-3-(pyridin-2-yl)acryloyl)piperazin-2-yl)acetonitrile], the IC50 (values in nM) was 260 nM. The same measure, in the same setting: in the case of `N#CC[C@H]1CN(c2nc(OC[C@@]34CCCN3C[C@H](F)C4)nc3c(F)c(-c4cccc5cccc(Cl)c45)ccc23)CCN1C(=O)/C(F)=C/c1nccs1` [Example 75, 2-((S)-4-(7-(8-chloronaphthalen-1-yl)-8-fluoro-2-(((2R,7aS)-2-fluorotetrahydro-1H-pyrrolizin-7a(5H)-yl)methoxy)quinazolin-4-yl)-1-((Z)-2-fluoro-3-(thiazol-2-yl)acryloyl)piperazin-2-yl)acetonitrile] it was 60 nM. As for `Cc1cc(N)nc(-c2c(Cl)cc3c(N4CC5CN(C(=O)/C(F)=C/c6nccs6)C5C4)nc(OC[C@]45CCCN4C[C@H](F)C5)nc3c2F)c1C(F)(F)F` (single isomer, unassigned) [Example 15, Isomer 1], for the setting “values given in μM”, the IC50 was determined as 93800 nM. As to `C#Cc1c(F)ccc2cc(O)cc(-c3ccc4c(N5C[C@H]6CC[C@@H](C5)N6C(=O)/C(F)=C/c5nccs5)nc(OC[C@@H]5CCCN5C)nc4c3F)c12` [Example 21, (Z)-1-((1R,5S)-3-(7-(8-ethynyl-7-fluoro-3-hydroxynaphthalen-1-yl)-8-fluoro-2-(((S)-1-methylpyrrolidin-2-yl)methoxy)quinazolin-4-yl)-3,8-diazabicyclo[3.2.1]octan-8-yl)-2-fluoro-3-(thiazol-2-yl)prop-2-en-1-one], for the setting “values in nM”, the IC50 came to 400 nM. For the compound `C#Cc1cccc2cccc(-c3ccc4c(N5CCN(C(=O)/C(F)=C/c6nccs6)[C@@H](CC#N)C5)nc(OC[C@@]56CCCN5C[C@H](F)C6)nc4c3F)c12` [Example 86, 2-((S)-4-(7-(8-ethynylnaphthalen-1-yl)-8-fluoro-2-(((2R,7aS)-2-fluorotetrahydro-1H-pyrrolizin-7a(5H)-yl)methoxy)quinazolin-4-yl)-1-((Z)-2-fluoro-3-(thiazol-2-yl)acryloyl)piperazin-2-yl)acetonitrile], where the note is “values in nM”, the IC50 is 44 nM. On to `Cc1cc(N)nc(-c2c(Cl)cc3c(N4CCC5C(CCN5C(=O)/C(F)=C/c5nccs5)C4)nc(OC[C@]45CCCN4C[C@H](F)C5)nc3c2F)c1C(F)(F)F` (single isomer, unassigned) [Example 26, Isomer 1], for which, for the setting “values given in μM”, the IC50 is 3370 nM. In the case of `CN1CCC[C@H]1COc1nc(N2CCN(C(=O)/C(F)=C/c3nccs3)[C@@H](CC#N)C2)c2ccc(-c3cc(O)cc4ccccc34)c(F)c2n1` [Example 23, 2-((S)-1-((Z)-2-fluoro-3-(thiazol-2-yl)acryloyl)-4-(8-fluoro-7-(3-hydroxynaphthalen-1-yl)-2-(((S)-1-methylpyrrolidin-2-yl)methoxy)quinazolin-4-yl)piperazin-2-yl)acetonitrile], the IC50 (values in nM) is 16 nM.
